According to patent publication US20070270362A1, “Methods and compositions for prevention or treatment of inflammatory-related diseases and disorders” (The University of Washington, priority 2006, published 2007):
“Also recorded” adds a separate entry of the source.

Legend:
BAEC or HUVEC monolayer = assay: Lymphocyte adhesion to endothelial cells treated with retracting or apoptosis-inducing agents; assay type: cell-based; conditions: for lymphocyte adhesion to EC treated with the agent: BAEC or HUVEC
Description: Cells. Jurkat cells and Ramos B cells were obtained from the American Type Culture Collection (ATCC) and were cultured in RPMI (Mediatech, Herndon Va.) supplemented with glutaMAX-1 (Invitrogen, Carlsbad Calif.), 1 mM sodium pyruvate (BioWhittaker, Walkersville Md.), nonessential amino acids (NEAA) (BioWhittaker) and 10% fetal bovine serum (FBS) (Hyclone, Logan Utah). Peripheral blood was obtained from healthy donors with informed consent according to protocols approved by the Human Subjects Review Committee of the University of Washington. PBMC were isolated by Ficoll-Hypaque (Pharmacia, Piscataway, N.J.) gradient centrifugation and washed with PBS. […] HUVEC were cultured on surfaces coated with 2% gelatin (Sigma). BAEC were a gift of Helene Sage (Hope Heart Institute, Seattle Wash.) and were grown in DMEM (Mediatech) supplemented with glutaMAX-1, sodium pyruvate and 8% FBS. […] Adhesion assays. Lymphocytes were labeled with 2.5 mM calcein-AM (Molecular Probes, Eugene, Oreg.) at room temperature for 20-40 min, washed, and resuspended in HBSS with calcium and magnesium (Mediatech) supplemented with 0.1% BSAnd 4 mM HEPES. Lymphocytes were incubated with inhibitors or function-blocking antibodies at 37° C. for 15-30 min and tested for LIA or phorbol ester-stimulated adhesion to EC or to EC matrix for 15-30 min at 37° C. Adhesion was measured by a Cytofluor Series 4000 fluorescence plate reader (PerSeptive Biosystems, Framingham, Mass.). Plates were scanned before and after washing for total and adherent cells, respectively. Statistical significance was deteremined by Student's t-Test. In some cases, EC were labeled with Cell Tracker Orange (Molecular Probes) per manufacturers instructions prior to adhesion. Cells were fixed after adhesion assays and adherent cells were directly visualized by fluorescent microscopy.

[1] = test system: Jurkat cells or PBMC adhering to cytochalasin D-retracted BAEC or BAEC-derived matrix; assay: Ligand-induced adhesion (LIA) of unstimulated lymphocytes to retracted EC or EC matrix; assay type: cell-based, human; conditions: for adhesion to retracted BAEC or EC matrix (LIA): Jurkat or PBMC treated with 20 μM inhibitor for 30 min, adhesion 30 min; for ligand-induced cell adhesion: same dose (1 μM) treatment of Jurkat cells
Description: Cells. Jurkat cells and Ramos B cells were obtained from the American Type Culture Collection (ATCC) and were cultured in RPMI (Mediatech, Herndon Va.) supplemented with glutaMAX-1 (Invitrogen, Carlsbad Calif.), 1 mM sodium pyruvate (BioWhittaker, Walkersville Md.), nonessential amino acids (NEAA) (BioWhittaker) and 10% fetal bovine serum (FBS) (Hyclone, Logan Utah). Peripheral blood was obtained from healthy donors with informed consent according to protocols approved by the Human Subjects Review Committee of the University of Washington. PBMC were isolated by Ficoll-Hypaque (Pharmacia, Piscataway, N.J.) gradient centrifugation and washed with PBS. HUVEC were isolated and cultured as previously described (Schwartz et al., J Immunol 162: 4842-8, 1999) and were grown in RPMI 1640 with supplemented with 2 mM glutamine, sodium pyruvate, NEAA, 10 mM HEPES, 100 U/ml penicillin, 100 U/ml streptomycin, 250 ng/ml fungizone (BioWhittaker), […] heparin (Sigma, St. Louis, Mo.), bovine hypothalamic extract (gift of E. Raines, University of Washington, Seattle, Wash.), and 10% bovine calf serum supplemented with iron (HyClone). HUVEC were cultured on surfaces coated with 2% gelatin (Sigma). BAEC were a gift of Helene Sage (Hope Heart Institute, Seattle Wash.) and were grown in DMEM (Mediatech) supplemented with glutaMAX-1, sodium pyruvate and 8% FBS. EC matrix was prepared by lysis of a confluent layer of EC with 20 mM NH4OH at 37° C. for 5 min (Kato and Gospodarowicz, J Cell Biol 100: 486-95, 1985) and blocked briefly with growth medium. Adhesion assays. Lymphocytes were labeled with 2.5 mM calcein-AM (Molecular Probes, Eugene, Oreg.) at room temperature for 20-40 min, washed, and resuspended in HBSS with calcium and magnesium (Mediatech) supplemented with 0.1% BSAnd 4 mM HEPES. Lymphocytes were incubated with inhibitors or function-blocking antibodies at 37° C. for 15-30 min and tested for LIA or phorbol ester-stimulated adhesion to EC or to EC matrix for 15-30 min at 37° C. Adhesion was measured by a Cytofluor Series 4000 fluorescence plate reader (PerSeptive Biosystems, Framingham, Mass.). Plates were scanned before and after washing for total and adherent cells, respectively. Statistical significance was deteremined by Student's t-Test. In some cases, EC were labeled with Cell Tracker Orange (Molecular Probes) per manufacturers instructions prior to adhesion. Cells were fixed after adhesion assays and adherent cells were directly visualized by fluorescent microscopy. Underlying fibronectin fibrils were visualized with polyclonal anti-bovine fibronectin antibody (Accurate), followed by Alexa-568 conjugated secondary antibody (Molecular Probes).

Jurkat cells = conditions: 1 μM treatment of Jurkat cells; previously reported; cited from earlier work
[2] = test system: retinoblastoma protein (Rb), Cdk2 specific site (T821) and Cdk4 specific site (249/252); assay: Western blot of Rb phosphorylation with phospho-specific antibodies; assay type: cell-based; conditions: Jurkat cells, 20 μM, 30 min
Description: Western Blot Analysis. Equal numbers of Jurkat cells (1×10^6) were lysed in buffer containing 50 mM Hepes, pH 7.5, 10 mM NaCl, 5 mM MgCl2, 1 mM EGTA, 1 μg/ml leupeptin, 1 μg/ml aprotinin, 1% triton, and 10% glycerol and Complete Mini Protease Inhibitor Cocktail (Roche). Equal amounts of protein were separated by SDS-PAGE, transferred to Immobilon and blocked for 1 hour. Blots were incubated with primary antibody for 1 hour, followed by peroxidase-conjugated secondary antibody for 1 hour and then developed with Enhanced Chemiluminescence (ECL, Amersham). […] Anti-Cdk2 and anti-Cdk4 antibodies were obtained from eBioscience.

[3] = test system: PBMC migrating through confluent HUVEC monolayer; assay: Transendothelial migration assay; assay type: cell-based, human
Description: Flow cytometry. Integrin subunit expression levels were analyzed by a FACScan (Becton Dickinson) instrument. Analyzed cells were incubated in integrin antibodies for 30 min, followed by incubation with fluorescein-labeled secondary antibodies for 30 mins. Migration Assays. Calcein-labeled PBMC were treated with purvanalol for 15 min, then added to a confluent monolayer of HUVEC grown on collagen-coated transwell (3 micron pore size, Costar-Corning). PBMC were allowed to migrate for 4 hours at 37° C. Number of migrated cells in bottom chamber was counted. […] In addition, in some experiments, equal numbers of PBMC were allowed to adhere to HUVEC, then treated with purvanaol, to verify that differences in migration were not simply due to differences in initial adhesion. All assays were performed in triplicate. Integrity of the endothelial monolayer was verified by measurements of transendothelial resistance before and after migration assay.

## O=C(O)CN(CCN(CC(=O)O)CC(=O)O)CC(=O)O [EDTA]
BAEC or HUVEC monolayer
  endothelial cell retraction: caused endothelial cell retraction

## COc1cccc(-c2cc(=O)c3ccccc3o2)c1N [PD98059]
[1]
  inhibition of LIA by inhibitors of other pathways: did not inhibit LIA

## C[C@@H](N)[C@H]1CC[C@H](C(=O)Nc2ccncc2)CC1 [Y-7632]
[1]
  inhibition of LIA by inhibitors of other pathways: did not inhibit LIA

## CC(C)[C@H](CO)Nc1nc(Nc2cc(N)cc(Cl)c2)c2ncn(C(C)C)c2n1 [aminopurvalanol A]
[1]
  adhesion to retracted BAEC or EC matrix (LIA): block ligand-induced adhesion; also recorded: significantly reduced

## COc1cc2c(c(OC)c1OC)-c1ccc(OC)c(=O)cc1[C@@H](NC(C)=O)CC2 [colchicine]
BAEC or HUVEC monolayer
  endothelial cell retraction: failed to induce retraction
  lymphocyte adhesion to EC treated with the agent: failed to produce comparable lymphocyte adhesion

## C=C1[C@@H](C)[C@H]2[C@H](Cc3ccccc3)NC(=O)[C@]23[C@H](OC(C)=O)/C=C/[C@@](C)(O)C(=O)[C@@H](C)C/C=C/[C@H]3[C@@H]1O [cytochalasin D]
Jurkat cells
  phorbol ester-stimulated cell adhesion: Inhibited by cytochalasin D
BAEC or HUVEC monolayer
  endothelial cell retraction: caused endothelial cell retraction
BAEC or HUVEC monolayer; PBMC
  PBMC adhesion to treated EC versus untreated EC: 5-6 fold
[1]
  ligand-induced cell adhesion: Not affected by cytochalasin D
[1]; listed as cytochalasin
  ligand-induced cell adhesion: no affect

## O=c1c(-c2ccc(O)cc2)coc2cc(O)cc(O)c12 [genistein]
[1]
  inhibition of LIA by inhibitors of other pathways: did not inhibit LIA

## COC(=O)Nc1nc2cc(C(=O)c3cccs3)ccc2[nH]1 [nocadozole]
BAEC or HUVEC monolayer
  endothelial cell retraction: failed to induce retraction
  lymphocyte adhesion to EC treated with the agent: failed to produce comparable lymphocyte adhesion

## CC(=O)O[C@H]1C(=O)[C@@]2(C)[C@H]([C@H](OC(=O)c3ccccc3)[C@]3(O)C[C@H](OC(=O)[C@H](O)[C@@H](NC(=O)c4ccccc4)c4ccccc4)C(C)=C1C3(C)C)[C@]1(OC(C)=O)CO[C@@H]1C[C@@H]2O [paclitaxel]
BAEC or HUVEC monolayer
  endothelial cell retraction: failed to induce retraction
  lymphocyte adhesion to EC treated with the agent: failed to produce comparable lymphocyte adhesion

## CC(C)[C@H](CO)Nc1nc(Nc2cccc(Cl)c2)c2ncn(C(C)C)c2n1 [purvalanol A]
[2]
  phosphorylation of Rb at Cdk2 site (T821) and Cdk4 site (249/252): block Rb phosphorylation
[3]
  initial adhesion of PBMC to confluent endothelial cells: did not affect initial adhesion
[3]; HUVEC on transwell
  PBMC migration through confluent endothelial monolayer: inhibited
[1]
  adhesion to retracted BAEC or EC matrix (LIA): block ligand-induced adhesion; also recorded: significantly reduced

## CC[C@H](CO)Nc1nc(NCc2ccccc2)c2ncn(C(C)C)c2n1 [roscovitine]
[1]
  adhesion to retracted BAEC or EC matrix (LIA): block ligand-induced adhesion; also recorded: significantly reduced

## CN[C@@H]1C[C@H]2O[C@@](C)([C@@H]1OC)n1c3ccccc3c3c4c(c5c6ccccc6n2c5c31)C(=O)NC4 [staurosporine]
BAEC or HUVEC monolayer
  endothelial cell retraction: caused endothelial cell retraction

## CC[C@]1(O)C[C@@H]2CN(CCc3c([nH]c4ccccc34)[C@@](C(=O)OC)(c3cc4c(cc3OC)N(C)[C@H]3[C@@](O)(C(=O)OC)[C@H](OC(C)=O)[C@]5(CC)C=CCN6CC[C@]43[C@@H]65)C2)C1 [vinblastine]
BAEC or HUVEC monolayer
  endothelial cell retraction: failed to induce retraction
  lymphocyte adhesion to EC treated with the agent: failed to produce comparable lymphocyte adhesion

## Thrombin
BAEC or HUVEC monolayer
  endothelial cell retraction: caused endothelial cell retraction
BAEC or HUVEC monolayer; Jurkat cells, BAEC
  increase of Jurkat cell adhesion to treated BAEC: 4-5 fold

## latrunculin
BAEC or HUVEC monolayer
  endothelial cell retraction: caused endothelial cell retraction
